Measurements from patent US9643974B2, “Amino-substituted imidazopyridazines” (Bayer Intellectual Property GmbH, priority 2011, dated 2017).

Tests used:
human full-length MKNK1 = biological target: T1, human full-length MKNK1 (Homo sapiens, UniProt Q9BUB5, T385D); test: MKNK1 kinase high ATP assay (TR-FRET-based); format: biochemical; conditions: ATP final conc. 2 mM, 15 min preincubation, 30 min reaction at 22° C.
T1 construct: purchased Carna Biosciences 02-145; host or cells: insect cells (baculovirus expression system)
Experimental: MKNK1 Kinase High ATP Assay
MKNK1-inhibitory activity at high ATP of compounds of the present invention after their preincubation with MKNK1 was quantified employing the TR-FRET-based MKNK1 high ATP assay as described in the following paragraphs.
(§1) A recombinant fusion protein of Glutathione-S-Transferase (GST, N-terminally) and human full-length MKNK1 (amino acids 1-424 and T344D of accession number BAA 19885.1), expressed in insect cells using baculovirus expression system and purified via glutathione sepharose affinity chromatography, was purchased from Carna Biosciences (product no 02-145) and used as enzyme. As substrate for the kinase reaction the biotinylated peptide biotin-Ahx-IKKRKLTRRKSLKG (C-terminus in amide form) was used, which can be purchased e.g. from the company Biosyntan (Berlin-Buch, Germany).
(§2) For the assay 50 nL of a 100 fold concentrated solution of the test compound in DMSO was pipetted into a black low volume 384 well microtiter plate (Greiner Bio-One, Frickenhausen, Germany), 2 μL of a solution of MKNK1 in aqueous assay buffer [50 mM HEPES pH 7.5, 5 mM magnesium chloride, 1.0 mM dithiothreitol, 0.005% (v/v) Nonidet-P40 (Sigma)] was added and the mixture was incubated for 15 min at 22° C. to allow pre-binding of the test compounds to the enzyme before the start of the kinase reaction. Then the kinase reaction was started by the addition of 3 μL of a solution of adenosine-tri-phosphate (ATP, 3.3 mM=>final conc. in the 5 μL assay volume is 2 mM) and substrate (0.1 μM=>final conc. in the 5 μL assay volume is 0.06 μM) in assay buffer and the resulting mixture was incubated for a reaction time of 30 min at 22° C. The concentration of MKNK1 was adjusted depending of the activity of the enzyme lot and was chosen appropriate to have the assay in the linear range, typical concentrations were in the range of 0.003 μg/mL. The reaction was stopped by the addition of 5 μL of a solution of TR-FRET detection reagents (5 nM streptavidine-XL665 [Cisbio Bioassays, Codolet, France] and 1 nM anti-ribosomal protein S6 (pSer236)-antibody from Invitrogen [#44921G] and 1 nM LANCE EU-W1024 labeled ProteinG [Perkin-Elmer, product no. AD0071]) in an aqueous EDTA-solution (100 mM EDTA, 0.1% (w/v) bovine serum albumin in 50 mM HEPES pH 7.5).
(§3) The resulting mixture was incubated for 1 h at 22° C. to allow the formation of complex between the phosphorylated biotinylated peptide and the detection reagents. Subsequently the amount of phosphorylated substrate was evaluated by measurement of the resonance energy transfer from the Eu-chelate to the streptavidine-XL. Therefore, the fluorescence emissions at 620 nm and 665 nm after excitation at 350 nm were measured in a TR-FRET reader, e.g. a Rubystar (BMG Labtechnologies, Offenburg, Germany) or a Viewlux (Perkin-Elmer). The ratio of the emissions at 665 nm and at […] was taken as the measure for the amount of phosphorylated substrate. The data were normalised (enzyme reaction without inhibitor=0% inhibition, all other assay components but no enzyme=100% inhibition).

human full-lengt MKNK1 = biological target: T2, human full-lengt MKNK1 (Homo sapiens, UniProt Q9BUB5, T385D); test: MKNK1 kinase assay (MKNK1 TR-FRET assay); format: biochemical; conditions: ATP final conc. 10 μM, 15 min preincubation, 45 min reaction at 22° C.
T2 construct: purchased Carna Biosciences 02-145; host or cells: insect cells (baculovirus expression system)
Text: MKNK1-inhibitory activity of compounds of the present invention was quantified employing the MKNK1 TR-FRET assay as described in the following paragraphs.
as §1, with “human full-lengt” for “human full-length”, “was used” for “was used,”, “e.g. form” for “e.g. from”
as §2, with “16.7 μM=>final” for “3.3 mM=>final”, “10 μM)” for “2 mM)”, “45” for “30”, “0.05 μg/ml.” for “0.003 μg/mL.”
as §3, with “inhibition). Usually the test compounds were tested on the same microtiterplate in 11 different concentrations in the range of 20 μM to 0.1 nM (20 μM, 5.9 μM, 1.7 μM, 0.51 μM, 0.15 μM, 44 nM, 13 nM, 3.8 nM, 1.1 nM, 0.33 nM and 0.1 nM, the dilution series prepared separately before the assay on the level of the 100 fold concentrated solutions in DMSO by serial 1:3.4 dilutions) in duplicate values for each concentration and […] were calculated by a 4 parameter fit.” for “inhibition).”

T1 sequence (Q9BUB5 1-424 isoform Q9BUB5-2 T344D): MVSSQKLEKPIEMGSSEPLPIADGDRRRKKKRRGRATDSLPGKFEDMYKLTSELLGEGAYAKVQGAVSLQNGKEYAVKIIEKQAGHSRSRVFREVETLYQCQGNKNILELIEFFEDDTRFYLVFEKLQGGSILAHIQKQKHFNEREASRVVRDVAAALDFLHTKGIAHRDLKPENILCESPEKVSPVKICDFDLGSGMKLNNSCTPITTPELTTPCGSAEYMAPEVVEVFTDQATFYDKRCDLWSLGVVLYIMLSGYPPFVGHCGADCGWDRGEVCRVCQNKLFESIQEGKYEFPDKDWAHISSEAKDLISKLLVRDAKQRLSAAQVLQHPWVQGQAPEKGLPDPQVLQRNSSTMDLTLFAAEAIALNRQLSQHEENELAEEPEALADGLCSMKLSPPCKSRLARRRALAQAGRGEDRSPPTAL
T2 sequence (Q9BUB5 1-424 isoform Q9BUB5-2 T344D): as above

Row | IC50 (human full-length MKNK1) | IC50 (human full-lengt MKNK1) | SMILES
1 | 28 nM | 16 nM | C[C@H](N)COc1ccc2ncc(-c3cc4c(OCC5CC5)nccc4o3)n2n1 [Example 25, (2S)-1-({3-[4-(Cyclopropylmethoxy)furo[3,2-c]pyridin-2-yl]imidazo[1,2-b]-pyridazin-6-yl}oxy)propan-2-amine]
2 | 19 nM |  | C[C@H](N)COc1ccc2ncc(-c3cc4c(OC5CCC5)nccc4o3)n2n1 [Example 41, (2S)-1-({3-[4-(Cyclobutyloxy)furo[3,2-c]pyridin-2-yl]imidazo[1,2-b]pyridazin-6-yl}oxy)propan-2-amine]
3 | 13 nM | 5 nM | CCNc1nccc2oc(-c3cnc4ccc(OC[C@H](C)N)nn34)cc12 [Example 40, 2-(6-{[(2S)-2-Aminopropyl]oxy}imidazo[1,2-b]pyridazin-3-yl)-N-ethylfuro[3,2-c]pyridin-4-amine]
4 | 37 nM | 23 nM | COc1nccc2oc(-c3cnc4ccc(O[C@H](C)CN)nn34)cc12 [Example 6, (2R)-2-{[3-(4-Methoxyfuro[3,2-c]pyridin-2-yl)imidazo[1,2-b]pyridazin-6-yl]-oxy}propan-1-amine]
5 | 62 nM | 34 nM | COc1nccc2oc(-c3cnc4ccc(OC[C@@H](N)[C@@H](C)OCc5ccccc5)nn34)cc12 [Example 10, (2R,3R)-3-(Benzyloxy)-1-{[3-(4-methoxyfuro[3,2-c]pyridin-2-yl)imidazo[1,2-b]-pyridazin-6-yl]oxy}butan-2-amine]
6 | 37 nM | 14 nM | CCOc1nccc2oc(-c3cnc4ccc(OC[C@H](C)N)nn34)cc12 [Example 32, (2S)-1-{[3-(4-Ethoxyfuro[3,2-c]pyridin-2-yl)imidazo[1,2-b]pyridazin-6-yl]oxy}-propan-2-amine]
7 | 28 nM | 13 nM | COc1nccc2oc(-c3cnc4ccc(O[C@H]5CCC[C@@H]5N)nn34)cc12 [Example 31, (1S,2S)-2-{[3-(4-Methoxyfuro[3,2-c]pyridin-2-yl)imidazo[1,2-b]pyridazin-6-yl]-oxy}cyclopentanamine]
8 | 31 nM | 12 nM | COc1nccc2oc(-c3cnc4ccc(OC[C@H](N)CO)nn34)cc12 [Example 15, (2R)-2-Amino-3-{[3-(4-methoxyfuro[3,2-c]pyridin-2-yl)imidazo[1,2-b]pyridazin-6-yl]oxy}propan-1-C1]
9 | 259 nM | 153 nM | COc1nccc2oc(-c3cnc4ccc(OCC5(CN)COC5)nn34)cc12 [Example 27, 1-[3-({[3-(4-Methoxyfuro[3,2-c]pyridin-2-yl)imidazo[1,2-b]pyridazin-6-yl]-oxy}methyl)oxetan-3-yl]methanamine]
10 | 26 nM |  | C[C@@H](N)COc1ccc2ncc(-c3cc4c(OC5CCC5)nccc4o3)n2n1 [Example 42, (2R)-1-({3-[4-(Cyclobutyloxy)furo[3,2-c]pyridin-2-yl]imidazo[1,2-b]pyridazin-6-yl}oxy)propan-2-amine]

The remaining lines, values behind:

Row | SMILES | IC50 (human full-length MKNK1) | IC50 (human full-lengt MKNK1)
11 | N[C@H]1C[C@H](Oc2ccc3ncc(-c4cc5cnccc5o4)n3n2)C1 [Example 29, trans-3-{[3-(Furo[3,2-c]pyridin-2-yl)imidazo[1,2-b]pyridazin-6-yl]oxy}cyclobutanamine] | 16 nM | 8 nM
12 | C[C@@H](N)COc1ccc2ncc(-c3cc4ncccc4o3)n2n1 [Example 17, (2R)-{[3-(Furo[3,2-b]pyridin-2-yl)imidazo[1,2-b]pyridazin-6-yl]oxy}propan-2-amine] | 127 nM | 67 nM
13 | C[C@H](N)COc1ccc2ncc(-c3cc4cnccc4o3)n2n1 [Example 20, (2S)-1-{[3-(Furo[3,2-c]pyridin-2-yl)imidazo[1,2-b]pyridazin-6-yl]oxy}propan-2-amine] | 132 nM | 64 nM
14 | COc1nccc2oc(-c3cnc4ccc(O[C@@H]5CC[C@H](N)C5)nn34)cc12 [Example 18, (1S,3R)-3-{[3-(4-Methoxyfuro[3,2-c]pyridin-2-yl)imidazo[1,2-b]pyridazin-6-yl]-oxy}cyclopentanamine] | 43 nM | 17 nM
15 | CC(C)[C@H](N)COc1ccc2ncc(-c3cc4cnccc4o3)n2n1 [Example 30, (2S)-1-{[3-(Furo[3,2-c]pyridin-2-yl)imidazo[1,2-b]pyridazin-6-yl]oxy}-3-methylbutan-2-amine] | 309 nM | 137 nM
16 | C[C@@H](N)COc1ccc2ncc(-c3cc4cnccc4o3)n2n1 [Example 26, (2R)-1-{[3-(Furo[3,2-c]pyridin-2-yl)imidazo[1,2-b]pyridazin-6-yl]oxy}propan-2-amine] | 216 nM | 100 nM
17 | CCN(C(=O)OC(C)(C)C)c1nccc2oc(-c3cnc4ccc(OC[C@H](C)N)nn34)cc12 [Example 39, tert-Butyl[2-(6-{[(2S)-2-aminopropyl]oxy}imidazo[1,2-b]pyridazin-3-yl)-furo[3,2-c]pyridin-4-yl]ethylcarbamate] | 593 nM | 250 nM
18 | C[C@H](CN)Oc1ccc2ncc(-c3cc4cnccc4o3)n2n1 [Example 8, (2R)-2-{[3-(Furo[3,2-c]pyridin-2-yl)imidazo[1,2-b]pyridazin-6-yl]oxy}propan-1-amine] | 136 nM | 28 nM
19 | N[C@H](COc1ccc2ncc(-c3cc4cnccc4o3)n2n1)c1ccccc1 [Example 1, (1S)-2-{[3-(Furo[3,2-c]pyridin-2-yl)imidazo[1,2-b]pyridazin-6-yl]oxy}-1-phenylethanamine] | 53 nM | 17 nM
